Reference: patent US20090281049A1, “New use of ginsenoside compound-k in manufacturing medicaments” (priority 2006, published 2009)

System: Collagen Type II (CII) induced arthritis in rats
Assay: Treatment effect on Collagen Type II (CII) induced arthritis in rats
Assay type: in vivo, Rat, SD strain
Method: Inflammation-induced agent: Collagen Type II was dissolved in 0.1 mol/L acetic acid to make final concentration be 2 mg/ml collagen solution, and held in 4° C. overnight. The Collagen Type II solution was added to cold Freund's Adjuvant Incomplete by drops (Collagen Type II: Freund's Adjuvant Incomplete=1:1) on the next day, emulsified completely (Type II Collagen solution: Freund's Adjuvant Incomplete=1:1), and the final concentration of Collagen Type II was 1 mg/ml. The Collagen Type II emulsion was reserved in a refrigerator at 4° C.
Immune method: Each rat was immunized by being injected subcutaneously at 5 points on the back with 0.1 ml emulsion in each point, total of […] (contained 0.5 mg Collagen Type II), and immunized again in the same way 7 days later. An emulsion of 0.1 mol/L acetic acid and Freund's Adjuvant Incomplete was injected in control group. The swell values of the arthrosis in right hind ankle and foot were measured respectively by using a hydroplethismometer before injection and 20 days after immunization.
Collagen Type II (CII) and Freund's Adjuvant Incomplete were ground into emulsion and were injected subcutaneously into the back of the rats for immunization. Until the 19th day, most parts of the pedal joint of the rats began to swell. Picked 40 rats out which were with swelled pedal joint and divided them into […] subsequently, i.e. 8 rats in each group. They are respectively […]: Ginsenoside Compound-K, 10 mg/kg, iv, medium dose group: Ginsenoside Compound-K, 5 mg/kg, iv, small dose group: Ginsenoside Compound-K, 2.5 mg/kg, iv, Enbrel group: 9 mg/kg, sc, Tripterygium Wilfordii Hook group: 1.5 mg/kg, po. and blank control group: physiological saline 10 mg/kg, iv. The rats were administered for 8 days consecutively. The swell value of the foot was measured respectively by using hydroplethismometer before inflammation induced and at different time after the onset of symptoms, then calculated swell rate and prohibition rate, and compared the differences among groups with t test.

CC(C)=CCC[C@](C)(O[C@@H]1O[C@H](CO)[C@@H](O)[C@H](O)[C@H]1O)[C@H]1CC[C@]2(C)[C@@H]1[C@H](O)C[C@@H]1[C@@]3(C)CC[C@H](O)C(C)(C)[C@@H]3CC[C@]12C [Ginsenoside Compound-K, ginsenoside Compound-K]
swell value (2.5 mg/kg iv, 0 day): 1.03 ± 0.05 mL | inhibition rate (2.5 mg/kg iv, 20 day): <18.95> % | swell rate (2.5 mg/kg iv, 20 day): (43.79 ± 12.08% | swell value (2.5 mg/kg iv, 20 day): 1.48 ± 0.11 mL | inhibition rate (2.5 mg/kg iv, 22 day): <19.94> % | swell rate (2.5 mg/kg iv, 22 day): (48.22 ± 10.27) % | swell value (2.5 mg/kg iv, 22 day): 1.53 ± 0.06 mL | inhibition rate (2.5 mg/kg iv, 23 day): <17.70> % | swell rate (2.5 mg/kg iv, 23 day): (51.23 ± 9.82) % | swell value (2.5 mg/kg iv, 23 day): 1.56 ± 0.06 mL | inhibition rate (2.5 mg/kg iv, 25 day): <16.26> % | swell rate (2.5 mg/kg iv, 25 day): (51.66 ± 18.36) % | swell value (2.5 mg/kg iv, 25 day): 1.56 ± 0.16 mL | inhibition rate (2.5 mg/kg iv, 28 day): <20.52> % | swell rate (2.5 mg/kg iv, 28 day): (41.04 ± 10.92) % | swell value (2.5 mg/kg iv, 28 day): 1.45 ± 0.10 mL | inhibition rate (2.5 mg/kg iv, 31 day): <22.73> % | swell rate (2.5 mg/kg iv, 31 day): (37.86 ± 11.18) % | swell value (2.5 mg/kg iv, 31 day): 1.42 ± 0.10 mL | swell value (5 mg/kg iv, 0 day): 1.03 ± 0.05 mL | inhibition rate (5 mg/kg iv, 20 day): <9.35> % | swell rate (5 mg/kg iv, 20 day): (48.97 ± 27.82% | swell value (5 mg/kg iv, 20 day): 1.52 ± 0.21 mL | inhibition rate (5 mg/kg iv, 22 day): <12.39> % | swell rate (5 mg/kg iv, 22 day): (52.77 ± 21.55) % | swell value (5 mg/kg iv, 22 day): 1.56 ± 0.15 mL | inhibition rate (5 mg/kg iv, 23 day): <13.87> % | swell rate (5 mg/kg iv, 23 day): (53.62 ± 14.27) % | swell value (5 mg/kg iv, 23 day): 1.58 ± 0.13 mL | inhibition rate (5 mg/kg iv, 25 day): <15.62> % | swell rate (5 mg/kg iv, 25 day): (52.06 ± 18.56) % | swell value (5 mg/kg iv, 25 day): 1.56 ± 0.19 mL | inhibition rate (5 mg/kg iv, 28 day): <13.17> % | swell rate (5 mg/kg iv, 28 day): (44.84 ± 25.91) % | swell value (5 mg/kg iv, 28 day): 1.49 ± 0.28 mL | inhibition rate (5 mg/kg iv, 31 day): <15.64> % | swell rate (5 mg/kg iv, 31 day): (41.34 ± 13.83) % | swell value (5 mg/kg iv, 31 day): 1.45 ± 0.13 mL | swell value (10 mg/kg iv, 0 day): 1.04 ± 0.19 mL | inhibition rate (10 mg/kg iv, 20 day): <12.61> % | swell rate (10 mg/kg iv, 20 day): (47.22 ± 18.60) % | swell value (10 mg/kg iv, 20 day): <1.52 ± 0.19 mL | inhibition rate (10 mg/kg iv, 22 day): <16.28> % | swell rate (10 mg/kg iv, 22 day): (50.43 ± 9.45) % | swell value (10 mg/kg iv, 22 day): 1.54 ± 0.12 mL | inhibition rate (10 mg/kg iv, 23 day): <19.28> % | swell rate (10 mg/kg iv, 23 day): (50.25 ± 22.06) % | swell value (10 mg/kg iv, 23 day): 1.54 ± 0.10 mL | inhibition rate (10 mg/kg iv, 25 day): <17.95> % | swell rate (10 mg/kg iv, 25 day): (50.62 ± 21.43) % | swell value (10 mg/kg iv, 25 day): 1.54 ± 0.12 mL | inhibition rate (10 mg/kg iv, 28 day): <22.09> % | swell rate (10 mg/kg iv, 28 day): (40.23 ± 16.26) % | swell value (10 mg/kg iv, 28 day): 1.44 ± 0.13 mL | inhibition rate (10 mg/kg iv, 31 day): <27.67> % | swell rate (10 mg/kg iv, 31 day): (35.44 ± 22.50) % | swell value (10 mg/kg iv, 31 day): 1.38 ± 0.11 mL | overall treatment effect on Collagen Type II induced arthritis (rats, 10, 5, 2.5 mg/kg iv for 8 days): able to cure Collagen Type II induced arthritis
